In PMC5829242, “Chiral DOTA chelators as an improved platform for biomedical imaging and therapy applications” (Nature Communications, 2018):
One block for each compound: values may come before it.

Columns and labels:
[1] = 17O NMR water exchange (residence time of water co-ligand); type: physicochemical; conditions: 17O NMR at 11.7T; for τM^310K, mean residence time of the water co-ligand at 310 K: q = 1 assumed
Experimental: (§1) Relaxivity measurements were performed on a Bruker mq60 Minispec at 1.41T and 37 °C. Longitudinal (T1) relaxation times were measured using an inversion recovery experiment with 10 inversion times of duration ranging between 0.05 × T1 and 5 × T1. Transverse (T2) relaxation times were measured using a CPMG pulse sequence. Relaxivity (r1, r2) was determined from the slope of a plot of 1/T1,2 vs [Gd] for at least 4 concentrations of Gd(III) (data shown in Supplementary Figs. 93–110). The T2 relaxation times of ^17O at 11.7T were estimated from the full-width at half-height of the H2^17O resonance at temperatures ranging from 278 to 368K. Reduced relaxation rates (1/T2r) were calculated by taking the difference of 1/T2 measured in the presence and absence of Gd(III) and dividing by the mole fraction of coordinated water molecules, assuming q = 1. […] However, at the high magnetic field used, and because of the very-fast water exchange rates observed, there was negligible contribution of T1e, and the data were refit to a two-parameter model using the water exchange rate at 310K (τM) and enthalpy of activation for water exchange (ΔH^‡) as adjustable parameters. The Gd-O hyperfine coupling constant, A/ħ, was assumed to be -3.8 × 10^6 rad s^−1 [57], [58]. Samples were prepared in neat H2O adjusted and enriched with a small amount of H2^17O.

[2] = Relaxivity measurements at 1.41T and 37 °C; type: physicochemical
Experimental: as §1

[3] = Kinetic stability of Gd complexes monitored by RP-HPLC (acid, base, DTPA, DOTA, ZnCl2); type: physicochemical
Source text: The kinetic stability of GBCAs, which reflects the dissociation of the Gd ions from its chelate is used to predict the stability in vivo[10]. The proton-assisted dissociation and direct attack of the endogenous ions are regarded as two main pathways that induced the dissociation of the chelates. The inertness of our Gd(III) complexes was maintained up to 7 days after addition of 1000 equivalents of a competitive ligand, DTPA (Supplementary Fig. 7 & 8). […] The harshest condition tried was setting the complexes of [GdL2A]^−, [GdL2B]^− and [GdDOTA]^− in 1N HCl (Fig. 5, Supplementary Figs. 13 - 15).
Fig. […] Error bars for [GdL2A]^- and [GdL2B]^- refer to the standard error of mean (S.E.M.), statistical data fitting analysis (n = 3; s.e.m.)

[4] = In vivo dynamic T1-weighted MR imaging at 4.7T; design: species or system C57/Bl6 mice; conditions: 0.1 mmol per kg i.v., 4.7 tesla, n = 1
Experimental: Dynamic T1-weighted MR imaging at 4.7 tesla was performed with C57/Bl6 mice before, during, and after 0.1 mmol per kg injection of each compound (Fig. 7).
(§2) Imaging was performed at 4.7T using a small-bore animal scanner (Bruker Biospec). Pilot dynamic MRI studies were performed with [GdL1]^−, [GdL2A]^−, [GdL2B]^− and [GdL5]^−; n = 1 per compound. Six to eight weeks male C57/Bl6 mice were anaesthetised with isoflurane (1%–2%) and placed in a specially designed cradle with body temperature maintained at 37 °C. The tail vein was catherised for intravenous delivery of the contrast agent while the animal was positioned in the scanner. A pneumatic pillow was placed on the mouse to enable respiratory monitoring (SA Instruments), and the animal’s body temperature was maintained with warm air. The imaging protocol utilised a three-dimensional fast low angle shot (3D FLASH) with a […] flip angle, 9.00 ms repetition rate, 2.39 ms echo time, 4.8 cm × 2.4 cm × 2.4 cm field of view with a 0.3 mm isotropic resolution. Images were acquired with either 2 or 8 averages giving an acquisition time of 2 min or 8 min, respectively. Baseline images were acquired with both 2 and 8 averages, then the Gd complex (0.1 mmol per kg) was injected intravenously and the sequence with 2 averages was repeated for a period of 10 min to monitor blood clearance. At 10, 30, 45, 60, 75 and 90 min after probe injection, the sequence with 8 averages was repeated to monitor the clearance of contrast from the liver and kidneys. After imaging was performed, the mouse was removed from the scanner and euthanized at 2 h post injection and the tissues were harvested for Gd quantification by ICP-MS.

[5] = Ex vivo biodistribution 2 h post injection after MRI study (ICP-MS); type: in vivo, C57/Bl6 mice; conditions: 0.1 mmol per kg i.v.
Experimental: (§3) Gd concentrations were determined using an Agilent 8800-QQQ ICP-MS system. All samples were diluted with 0.1% Triton X-100 in 5% nitric acid. Lutetium internal standard was steadily introduced to the ICP-MS from an external source during the analysis. A linear calibration curve for each metal ranging from 0.1 ppb to 200 ppb was generated daily for the quantification.
as §2

[6] = In vitro serum stability of 64CuL2; type: in vitro ADME; conditions: 37 °C
Experimental: (§4) The stability of CuDOTA and CuL2 was compared by UV-Visible spectra. […] Because the ionic radii of Lu(III) is very close to Yb(III), so we used the Yb(III) as a surrogate to study the stability. […] Additionally, we examined in vitro serum stability of ^64CuL2 at 37 °C.

[7] = Stability of Yb complexes in 1N DCl by 1H NMR; type: physicochemical
Experimental: as §4

[8] = Gd complexes biodistribution studies (ICP-MS); type: in vivo, BALB/c mice; conditions: 0.025 mmol/kg i.v., 5-360 min post injection
Source text: Most commercially available Gd(III)-based MRI contrast agents are excreted rapidly and exclusively through the renal pathway. One of the few exceptions is an acyclic compound, Gd-EOB-DTPA, which has a mixed clearance (50% renal, 50% biliary) and is used for imaging of the liver and biliary system. Gd-BOPTA and MS-325 have predominantly renal elimination with <10% elimination through the biliary system. […] We illustrated with our studies that there is a significant variation in the biodistribution profiles despite the small structural differences of the chiral substituents (Supplementary Fig. 20). Gd biodistribution in BALB/c mice was measured by ICP-MS at 5, 15, 30, 60, 180 and 360 min following injection. […] Low levels of Gd(III) are present at 6 h post injection. […] The specific and unusual localisation of [GdL2]^− in the liver makes it a potential hepatobiliary-specific MRI contrast agent.
as §3
Complexes [GdL1]^−, [GdL2]^− and [GdL5]^− were prepared by dissolving in saline solution, while [GdDOTA]^− (Dotarem) was diluted in saline solution. Eight-week-old male BALB/c mice (purchased from BioLASCO, Taiwan) each weighing approximately 25 g were administered with a single dose of 0.025 mmol/kg compound ([GdL1]^−, [GdL2]^−, [GdDOTA]^− and [GdL5]^−; 3 mice per compound per time point) in a 100 μl volume via lateral tail vein injection. The mice were then euthanized, and their blood collected by cardiac puncture at each time point (5, 15, 30, 60, 180 or 360 min post injection). A control group of 4 mice was treated with saline and killed at time point 0. The liver, lung, heart, kidneys, spleen and brain were removed from the animals and weighed. Gd content in tissue and blood samples was quantified via ICP-MS analysis. All experiments were performed in accordance with the NIH Guide for the Care and Use of Laboratory Animals and approved by the Institutional Animal Care and Use Committee of Massachusetts General Hospital or by the Department of Health of the Hong Kong Government and the Animal Subjects Ethics Sub-Committee of Hong Kong Polytechnic University.

[9] = Stability of Eu complexes on heating, at low pD and with Zn2+ (1H NMR); type: physicochemical

- ΔH^‡, enthalpy change of activation of water exchange [1]: 10.3 ± 0.478 kcal/mol
- τM^310K, mean residence time of the water co-ligand at 310 K [1]: 6.6 ± 0.4 ns
- r1 relaxivity ([2]; 4.5% w/v HSA (1.4T)): 4.7 mM⁻¹ s⁻¹
- r1 relaxivity ([2]; Human Plasma (1.4T)): 4.7 mM⁻¹ s⁻¹
- r1 relaxivity ([2]; Water (1.4T)): 4.2 mM⁻¹ s⁻¹
- decomplexation ([3]; 0.1N NaOH, over 10 days): negligible decomplexation
- decomplexation ([3]; 1N HCl, room temperature, after 487 h): almost no decomplexation
- decomplexation ([3]; 1N HNO3, over 10 days): negligible decomplexation
- decomplexation ([3]; 100 equivalents of zinc chloride at 50 °C, ~100 h): no obvious decomplexation
- stability and interconversion ([3]; one equivalent of DOTA ligand in 1N HCl): no interconversion was observed
- Gd concentration in gall bladder [5]: 854 nmol Gd per gram tissue
- Gd concentration in blood ([5]; listed as GdL2A): 0.49 nmol Gd per gram tissue
- Gd concentration in gall bladder ([5]; listed as GdL2A): 854.21 nmol Gd per gram tissue
- Gd concentration in heart ([5]; listed as GdL2A): 1.82 nmol Gd per gram tissue
- Gd concentration in intestines ([5]; listed as GdL2A): 0.05 nmol Gd per gram tissue
- Gd concentration in kidney ([5]; listed as GdL2A): 20.92 nmol Gd per gram tissue
- Gd concentration in liver ([5]; listed as GdL2A): 10.47 nmol Gd per gram tissue
- Gd concentration in lung ([5]; listed as GdL2A): 3.61 nmol Gd per gram tissue
- Gd concentration in muscle ([5]; listed as GdL2A): 5.18 nmol Gd per gram tissue
- Gd concentration in spleen ([5]; listed as GdL2A): 4.72 nmol Gd per gram tissue
- Gd concentration in stomach ([5]; listed as GdL2A): 3.14 nmol Gd per gram tissue
- Gd concentration in tail ([5]; listed as GdL2A): 2.13 nmol Gd per gram tissue
Compound: CC[C@H]1CN(CC(=O)[O-])[C@@H](CC)CN(CC(=O)[O-])[C@@H](CC)CN(CC(=O)[O-])[C@@H](CC)CN1CC(=O)[O-].[Gd+3] [[GdL2A]^−]
- MR enhancement of liver and gall bladder [4]: very similar behaviour to [GdL2B]^−

- decrease of radiochemical purity ([6]; 1 h of incubation): less than 0.3%
- decrease of radiochemical purity ([6]; 24 h of incubation): < 6.3%
Compound: CC[C@H]1CN(CC(=O)O)[C@@H](CC)CN(CC(=O)[O-])[C@@H](CC)CN(CC(=O)O)[C@@H](CC)CN1CC(=O)[O-].[64Cu+2] [^64CuL2]

- decomplexation [7]: no obvious decomplexation
Compound: CC[C@H]1CN(CC(=O)[O-])[C@@H](CC)CN(CC(=O)[O-])[C@@H](CC)CN(CC(=O)[O-])[C@@H](CC)CN1CC(=O)[O-].[Yb+3] [[YbL2]^−]

- ΔH^‡, enthalpy change of activation of water exchange [1]: 3.82 ± 0.335 kcal/mol
- τM^310K, mean residence time of the water co-ligand at 310 K [1]: 13 ± 0.4 ns
- r1 relaxivity ([2]; 4.5% w/v HSA (1.4T)): 4.5 mM⁻¹ s⁻¹
- r1 relaxivity ([2]; Human Plasma (1.4T)): 4.6 mM⁻¹ s⁻¹
- r1 relaxivity ([2]; Water (1.4T)): 4.1 mM⁻¹ s⁻¹
- Gd biodistribution / elimination profile [8]: near equal renal and hepatic clearance
- Gd concentration in blood [5]: 1.04 nmol Gd per gram tissue
- Gd concentration in gall bladder [5]: 139.87 nmol Gd per gram tissue
- Gd concentration in heart [5]: 1.68 nmol Gd per gram tissue
- Gd concentration in intestines [5]: 7.75 nmol Gd per gram tissue
- Gd concentration in kidney [5]: 16.71 nmol Gd per gram tissue
- Gd concentration in liver [5]: 1.64 nmol Gd per gram tissue
- Gd concentration in lung [5]: 1.81 nmol Gd per gram tissue
- Gd concentration in muscle [5]: 4.29 nmol Gd per gram tissue
- Gd concentration in spleen [5]: 6.63 nmol Gd per gram tissue
- Gd concentration in stomach [5]: 11.35 nmol Gd per gram tissue
- Gd concentration in tail [5]: 4.57 nmol Gd per gram tissue
Compound: C[C@H]1CN(CC(=O)[O-])[C@@H](C)CN(CC(=O)[O-])[C@@H](C)CN(CC(=O)[O-])[C@@H](C)CN1CC(=O)[O-].[Gd+3] [[GdL1]^−]
- MR enhancement of liver and gall bladder [4]: some enhancement of the liver and gall bladder

- inertness upon heating ([9]; 90 °C for 3 days, pD 7.0 ([EuL2A]) and 6.0 ([EuL2B])): extreme inertness
- racemization upon heating ([9]; heating for 3 days at pD 1.0): no signs of racemization
Compound: CC[C@H]1CN(CC(=O)[O-])[C@@H](CC)CN(CC(=O)[O-])[C@@H](CC)CN(CC(=O)[O-])[C@@H](CC)CN1CC(=O)[O-].[Eu+3] [[EuL2A]^−]
- stability with Zn2+ ([9]; 1 equivalent of Zn^2+): nor did the presence of 1 equivalent of Zn^2+ caused any instability

- ΔH^‡, enthalpy change of activation of water exchange [1]: 4.3 ± 0.598 kcal/mol
- τM^310K, mean residence time of the water co-ligand at 310 K [1]: 16 ± 0.8 ns
- r1 relaxivity ([2]; 4.5% w/v HSA (1.4T)): 5.1 mM⁻¹ s⁻¹
- r1 relaxivity ([2]; Human Plasma (1.4T)): 5.1 mM⁻¹ s⁻¹
- r1 relaxivity ([2]; Water (1.4T)): 4.1 mM⁻¹ s⁻¹
- Gd concentration in blood [5]: 0.80 nmol Gd per gram tissue
- Gd concentration in gall bladder [5]: 60.17 nmol Gd per gram tissue
- Gd concentration in heart [5]: 2.18 nmol Gd per gram tissue
- Gd concentration in intestines [5]: 2.68 nmol Gd per gram tissue
- Gd concentration in kidney [5]: over 90 nmol Gd per gram tissue
- Gd concentration in liver [5]: 2.01 nmol Gd per gram tissue
- Gd concentration in lung [5]: 1.49 nmol Gd per gram tissue
- Gd concentration in muscle [5]: 2.97 nmol Gd per gram tissue
- Gd concentration in spleen [5]: 4.43 nmol Gd per gram tissue
- Gd concentration in stomach [5]: 1.11 nmol Gd per gram tissue
- Gd concentration in tail [5]: 2.28 nmol Gd per gram tissue
- Gd concentration in kidney ([5]; listed as GdL5): 93.23 nmol Gd per gram tissue
Compound: NCCCC[C@H]1CN(CC(=O)[O-])[C@@H](CCCCN)CN(CC(=O)[O-])[C@@H](CCCCN)CN(CC(=O)[O-])[C@@H](CCCCN)CN1CC(=O)[O-].[Gd+3] [[GdL5]^−]
- Gd biodistribution / elimination profile [8]: mainly in the kidney and showed no tendency of clearance after 6 h
- MR enhancement of liver and gall bladder [4]: very little enhancement in the liver
- MR signal in the kidneys over time / at 60 min post injection [4]: renal cortex remained strongly enhanced

- decomplexation [7]: decomplexed very fast
Compound: O=C([O-])CN1CCN(CC(=O)[O-])CCN(CC(=O)[O-])CCN(CC(=O)[O-])CC1.[Yb+3] [[YbDOTA]^−, reference compound]
